{"source": "patent US20060069132A1", "about": "“Azolecarboxamide herbicides” (priority 2004, published 2006)", "key": {"barley cv. Boone": {"test_system": "barley cv. Boone", "assay": "Test I safening of Compound 6 by Harmony Extra Herbicide, pre-/postemergence", "format": "in vivo, Hordeum vulgare", "protocol": "This test evaluated the safening of Compound 6 on barley (Hordeum vulgare L.) cv. ‘Boone’ and wheat (Triticum aestivum L.) cv. ‘Recital’ by Harmony® Extra Herbicide, which comprises 50 wt % thifensulfuron-methyl and 25 wt % tribenuron-methyl. Barley and wheat seeds were planted in pots containing a pasteurized blend of Matapeake soil and sand. For postemergence testing the plants were grown 10 days so the barley seedlings were at the 2-leaf stage and the wheat seedlings were at the 2-3-leaf stage at time of treatment. Preemergence treatments were applied the day after the seeds were planted. Treatments were applied by spraying Compound 6 and/or […] in a non-phytotoxic solvent mixture, using flat fan nozzle and a spray volume of 280 L/ha. The treatments were triply replicated and the results subsequently averaged. The pots were placed on a greenhouse bench using a complete randomized block design except for the first replicate, which was unrandomized. The plants were grown in the greenhouse and watered as needed with a dilute nutrient solution containing 200 ppm of N. Illumination was daylight supplemented by artificial sources to maintain a photoperiod of 14 hours. The temperature was maintained at 23±2° C. during the day and 17±2° C. at night. The effects of the treatments were rated 25 days after preemergence treatment and 15 days after postemergence treatment. The plant response was visually rated in comparison to untreated controls using a scale of 0 to 100, with 0 representing no effect and 100 representing complete plant death.\nColby's Equation was used to calculate the expected additive herbicidal effect of the mixtures of Compound 6 with Harmony® Extra (i.e. a 2:1 mixture by weight of thifensulfuron-methyl and tribenuron-methyl). Colby's Equation (Colby, S. R. “Calculating Synergistic and Antagonistic Responses of Herbicide Combinations,” Weeds, 15(1), pp 20-22 (1967)) calculates the expected additive effect of herbicidal mixtures, and for two active ingredients is of the form: Pa+b=Pa+Pb−(PaPb/100) wherein • Pa+b is the percentage effect of the mixture expected from additive contribution of the individual components, • Pa is the observed percentage effect of the first active ingredient at the same use rate as in the mixture, and • Pb is the observed percentage effect of the second active ingredient at the same use rate as in the mixture.\nThe results and additive effects expected from Colby's Equation for the preemergence test are listed in Table I1, and the results and additive effects expected from Colby's Equation for the postemergence test are listed in Table I2."}, "Russian thistle": {"test_system": "Russian thistle", "assay": "Test F pre-/postemergence herbicide test", "format": "in vivo, Salsola kali", "text": "(§1) Seeds of plant species selected from annual blugrass (Poa annua L.), blackgrass (Alopecurus myosuroides Huds.), catchweed bedstraw (Gallium aparine L.), common chickweed (Stellaria media (L.) Vill./Cyr.), downy bromegrass (Bromus tectorum L.), green foxtail (Setaria viridis (L.) Beauv.), Italian ryegrass (Lolium multiflorum Lam.), kochia (Kochia scoparia (L.). Schrad.), lambsquarters (Chenopodium album L.), littleseed canarygrass (Phalaris minor Retz.), pigweed (Amaranthus retroflexus L.), Russian thistle (Salsola kali L. ssp. Ruthenica (Iljin) Soo), wild buckwheat (Polygonum convolvulus L.), wild mustard (Sinapis arvensis L.), wild oat (Avena fatua L.), windgrass (Apera spica-venti (L.) Beauv.), winter barley (Hordeum vulgare L.), and wheat (Triticum aestivum L.) were planted and treated preemergence with test chemicals formulated in a non-phytotoxic solvent mixture which included a surfactant.\n(§2) At the same time, plants selected from these crop and weed species were treated with postemergence applications of some of the test chemicals formulated in the same manner. Plants ranged in height from 2 to 18 cm (1- to 4-leaf stage) for postemergence treatments. Treated plants and controls were maintained in a greenhouse for 12 to 14 days, after which time all species were compared to controls and visually evaluated. Plant response ratings, summarized in Table F, are based on a scale of 0 to 100 where 0 is no effect and 100 is complete control. A dash (-) response means no test result."}, "wild mustard": {"test_system": "wild mustard", "assay": "Test F pre-/postemergence herbicide test", "format": "in vivo, Sinapis arvensis", "text": "as §1, §2"}, "windgrass": {"test_system": "windgrass", "assay": "Test F pre-/postemergence herbicide test", "format": "in vivo, Apera spica-venti", "text": "as §1, §2"}}, "data": [{"smiles": "CCn1nc(C(C)(C)C)cc1C(=O)Nc1cc(C(=O)N(C)C)ccc1F", "note": "[Compound 6, N-[5-[(dimethylamino)carbonyl]-2-fluorophenyl]-3-(1,1-dimethylethyl)-1-ethyl-1H-pyrazole-5-carboxamide]", "values": [{"measurement": "Barley Observed effect", "setting": "barley cv. Boone; postemergence, Compound 6 16, thifensulfuron-methyl 0, tribenuron-methyl 0 g a.i./ha", "result": 47}, {"measurement": "Barley Observed effect", "setting": "barley cv. Boone; postemergence, Compound 6 31, thifensulfuron-methyl 0, tribenuron-methyl 0 g a.i./ha", "result": 73}, {"measurement": "Barley Observed effect", "setting": "barley cv. Boone; preemergence, Compound 6 16, thifensulfuron-methyl 0, tribenuron-methyl 0 g a.i./ha", "result": 35}, {"measurement": "Barley Observed effect", "setting": "barley cv. Boone; preemergence, Compound 6 31, thifensulfuron-methyl 0, tribenuron-methyl 0 g a.i./ha", "result": 68}]}, {"smiles": "CCn1nc(C(C)(C)C)cc1C(=O)Nc1cc(C(=O)OC(C)C)c(F)cc1F", "note": "[Compound 248]", "values": [{"measurement": "Plant response rating (0-100), Thistle", "setting": "Russian thistle; Postemergence, 31 g ai/ha", "result": 25}, {"measurement": "Plant response rating (0-100), Thistle", "setting": "Russian thistle; Postemergence, 62 g ai/ha", "result": 30}, {"measurement": "Plant response rating (0-100), Thistle", "setting": "Russian thistle; Postemergence, 125 g ai/ha", "result": 30}, {"measurement": "Plant response rating (0-100), Thistle", "setting": "Russian thistle; Postemergence, 250 g ai/ha", "result": 40}, {"measurement": "Plant response rating (0-100), Thistle", "setting": "Russian thistle; Preemergence, 31 g ai/ha", "result": 30}, {"measurement": "Plant response rating (0-100), Thistle", "setting": "Russian thistle; Preemergence, 62 g ai/ha", "result": 30}, {"measurement": "Plant response rating (0-100), Thistle", "setting": "Russian thistle; Preemergence, 125 g ai/ha", "result": 30}, {"measurement": "Plant response rating (0-100), Thistle", "setting": "Russian thistle; Preemergence, 250 g ai/ha", "result": 45}, {"measurement": "Plant response rating (0-100), Mustard, Wild", "setting": "wild mustard; Postemergence, 31 g ai/ha", "result": 30}, {"measurement": "Plant response rating (0-100), Mustard, Wild", "setting": "wild mustard; Postemergence, 62 g ai/ha", "result": 40}, {"measurement": "Plant response rating (0-100), Mustard, Wild", "setting": "wild mustard; Postemergence, 125 g ai/ha", "result": 60}, {"measurement": "Plant response rating (0-100), Mustard, Wild", "setting": "wild mustard; Postemergence, 250 g ai/ha", "result": 60}, {"measurement": "Plant response rating (0-100), Mustard, Wild", "setting": "wild mustard; Preemergence, 31 g ai/ha", "result": 40}, {"measurement": "Plant response rating (0-100), Mustard, Wild", "setting": "wild mustard; Preemergence, 62 g ai/ha", "result": 50}, {"measurement": "Plant response rating (0-100), Mustard, Wild", "setting": "wild mustard; Preemergence, 125 g ai/ha", "result": 50}, {"measurement": "Plant response rating (0-100), Mustard, Wild", "setting": "wild mustard; Preemergence, 250 g ai/ha", "result": 50}, {"measurement": "Plant response rating (0-100), Windgrass", "setting": "windgrass; Postemergence, 31 g ai/ha", "result": 50}, {"measurement": "Plant response rating (0-100), Windgrass", "setting": "windgrass; Postemergence, 62 g ai/ha", "result": 50}, {"measurement": "Plant response rating (0-100), Windgrass", "setting": "windgrass; Postemergence, 125 g ai/ha", "result": 50}, {"measurement": "Plant response rating (0-100), Windgrass", "setting": "windgrass; Postemergence, 250 g ai/ha", "result": 50}, {"measurement": "Plant response rating (0-100), Windgrass", "setting": "windgrass; Preemergence, 31 g ai/ha", "result": 70}, {"measurement": "Plant response rating (0-100), Windgrass", "setting": "windgrass; Preemergence, 62 g ai/ha", "result": 70}, {"measurement": "Plant response rating (0-100), Windgrass", "setting": "windgrass; Preemergence, 125 g ai/ha", "result": 100}, {"measurement": "Plant response rating (0-100), Windgrass", "setting": "windgrass; Preemergence, 250 g ai/ha", "result": 100}]}]}
